From article PMC4258421 (Archives of biochemistry and biophysics, 2014)
Read-outs that look alike come from different tables or passages of the source.

What was measured:
[1] = test system: UGTs in human liver microsomes pooled from 150 donors (HLM150); type: in vitro ADME; details: for Km: read-out: Km for the microsomal reaction, glucuronidation at the C7 hydroxyl group, HLM150
recombinant UGT1A1 = details: read-out: Km for the UGT1A1 reaction, glucuronidation at the C7 hydroxyl group; cited from earlier work
plasma proteins = details: cited from earlier work
[2] = formation of 7-HOWAR-4-GLUC, DynaFit preferred model, 95 % CI in parentheses
[3] = formation of 7-HOWAR-7-GLUC, DynaFit preferred model, 95 % CI in parentheses

Row | SMILES | Ks [1, 2] | Vmax1 [1, 2] | Ks [1, 3] | Vmax1 [1, 3] | Km [1] [µM] | Km (recombinant UGT1A1) [µM] | not bound to plasma proteins (plasma proteins) [%] | Vmax2 [1, 2]
1 | CC(=O)C[C@@H](c1ccccc1)c1c(O)c2ccc(O)cc2oc1=O [S-7-OHWAR, S-7-hydroxywarfarin] | 110 (83.0–149) μM | 19.7 (17.6–22.4) nmol/min/mg protein | 927 (559–1960) μM | 1470 (1020–2700) nmol/min/mg protein | 927 | 230 | 4.27 | –
2 | CC(=O)C[C@H](c1ccccc1)c1c(O)c2ccc(O)cc2oc1=O [R-7-HOWAR, R-7-hydroxywarfarin] | – | 58.0 (49.5–66.1) nmol/min/mg protein | 121 (101–144) μM | 1090 (1050–1140) nmol/min/mg protein | 121 | 130 | 4.49 | 19.0 (16.3–21.4) nmol/min/mg protein
